# In ChEMBL document CHEMBL4813945, “Discovery and development of novel pyrimidine and pyrazolo/thieno-fused pyrimidine derivatives as potent and orally active inducible nitric oxide synthase dimerization inhibitor with efficacy for arthritis” (Eur J Med Chem, 2021):
# Active and inactive are the calls of the source. The calls are words filed in the database; no cut-off is given here.
# What was measured:
# RAW264.7 [1] = test: Antiinflammatory activity against mouse RAW264.7 cells assessed as inhibition of LPS-induced NO production at 10 uM preincubated for 1 hrs followed by LPS stimulation and measured after 24 hrs by Griess assay relative to control; type: functional; conditions: time 25 hrs
# L02 [2] = test: Cytotoxicity against human L02 cells assessed as cell viability by MTT assay; type: cell-based
# [3] = Subacute toxicity in rat assessed as heart damage at 100 to 500 mg/kg, IG administered every other day for 14 days and measured every 2 days by H and E staining; type: organism-based; conditions: in vivo, po, 336 h, dose 100-500 mg/kg, time 14 day
# RAW264.7 [4] = test: Cytotoxicity against mouse RAW264.7 cells at 20 uM measured after 24 hrs; type: cell-based; conditions: raw264.7, 24 h
# [5] = Subacute toxicity in rat assessed as anorexia at 100 to 500 mg/kg, IG administered every other day for 14 days and measured every 2 days; type: organism-based; conditions: in vivo, po, 336 h, dose 100-500 mg/kg, time 14 day
# [6] = Half life in Sprague-Dawley rat at 10 mg/kg, po measured after 0.25 to 24 hrs by LC-MS/MS analysis; type: ADME, organism-based; conditions: in vivo, time 0.25-24 hrs
# [7] = Subacute toxicity in rat assessed as drowsiness at 100 to 500 mg/kg, IG administered every other day for 14 days and measured every 2 days; type: organism-based; conditions: in vivo, po, 336 h, dose 100-500 mg/kg, time 14 day
# Rattus norvegicus [8] = test: Antiinflammatory activity in complete freund's adjuvant-induced IG dosed male Sprague-Dawley rat model of arthritis assessed as decrease in IL-6 level in serum after 4 weeks by ELISA; type: functional, organism-based; conditions: dose 40-80 mg/kg
# [9] = Cmax in Sprague-Dawley rat at 10 mg/kg, po measured after 0.25 to 24 hrs by LC-MS/MS analysis; type: ADME, organism-based; set-up: route oral, time lower 0.25 hrs, dose 10 mg/kg, time upper 24 hrs; conditions: in vivo
# [10] = Acute toxicity in rat assessed as mortality at 2000 mg/kg, IG administered as single dose; type: organism-based; conditions: in vivo, po
# Cytochrome P450 2C9 = Cytochrome P450 2C9 (Homo sapiens, UniProt P11712); test: Inhibition of CYP2C9 in human liver microsomes using Diclofenac as substrate measured after 20 mins by LC-MS/MS analysis; type: ADME
# RAW264.7 [11] = test: Inhibition of LPS-induced iNOS protein expression in mouse RAW264.7 cells at 0.5 to 2 uM preincubated for 1 hrs followed by LPS-stimulation and measured after 24 hrs by Western blot analysis; type: functional, cell-based; conditions: dose 0.5-2 µM, time 25.0 hrs
# [12] = AUC (0 to infinity) in Sprague-Dawley rat at 10 mg/kg, po measured by LC-MS analysis; type: ADME, organism-based; set-up: time infinity, route oral, dose 10 mg/kg; conditions: in vivo
# [13] = AUC (0 to infinity) in Sprague-Dawley rat at 1 mg/kg, iv measured by LC-MS analysis; type: ADME, organism-based; set-up: time infinity, route intravenous, dose 1 mg/kg; conditions: in vivo
# Rattus norvegicus [14] = species: Rattus norvegicus; test: Antiinflammatory activity against freund's adjuvant-induced male Sprague-Dawley rat model of arthritis assessed as decrease INOS expression at 40 to 80, IG after 4 weeks measured by staining based immunohistochemical analysis; type: functional, organism-based; conditions: dose 40-80 mg/kg
# [15] = Metabolic stability in human hepatocytes assessed as half life measured upto 120 mins by LC-MS/MS analysis; type: ADME, cell-based, Hepatocyte
# [16] = Subacute toxicity in rat assessed as spleen damage at 100 to 500 mg/kg, IG administered every other day for 14 days and measured every 2 days by H and E staining; type: organism-based; conditions: in vivo, po, 336 h, dose 100-500 mg/kg, time 14 day
# [17] = Subacute toxicity in rat assessed as fur wrinkles at 100 to 500 mg/kg, IG administered every other day for 14 days and measured every 2 days; type: organism-based; conditions: in vivo, po, 336 h, dose 100-500 mg/kg, time 14 day
# [18] = Acute toxicity in rat assessed as fur wrinkles at 2000 mg/kg, IG administered as single dose; type: organism-based; conditions: in vivo, po
# [19] = Metabolic stability in rat hepatocytes assessed as half life measured upto 120 mins by LC-MS/MS analysis; type: ADME, cell-based, Hepatocyte
# [20] = Subacute toxicity in rat assessed as clonic convulsions at 100 to 500 mg/kg, IG administered every other day for 14 days and measured every 2 days; type: organism-based; conditions: in vivo, po, 336 h, dose 100-500 mg/kg, time 14 day
# RAW264.7 [21] = test: Inhibition of LPS-induced NO release in mouse RAW264.7 cells preincubated for 1 hrs followed by LPS stimulation and measured after 24 hrs by Griess reagent based assay; type: functional, cell-based
# [22] = Volume of distribution at steady state in Sprague-Dawley rat at 1 mg/kg, iv measured after 0.08 to 24 hrs by LC-MS/MS analysis; type: ADME, organism-based; conditions: in vivo, time 0.08-24 hrs, read-out: Vdss
# L02 [23] = test: Antiinflammatory activity against human L02 assessed as inhibition of LPS-induced NO production preincubated for 1 hrs followed by LPS stimulation and measured after 24 hrs by Griess assay relative to control; type: functional, cell-based
# Rattus norvegicus [24] = test: Antiinflammatory activity in complete freund's adjuvant-induced IG dosed male Sprague-Dawley rat model of arthritis assessed as decrease in TNF-alpha level in serum after 4 weeks by ELISA; type: functional, organism-based; conditions: dose 40-80 mg/kg
# Cytochrome P450 2D6 = Cytochrome P450 2D6 (Homo sapiens, UniProt P10635); test: Inhibition of CYP2D6 in human liver microsomes using Dextromethorphan as substrate measured after 20 mins by LC-MS/MS analysis; type: ADME
# [25] = Half life in Sprague-Dawley rat at 1 mg/kg, iv measured after 0.08 to 24 hrs by LC-MS/MS analysis; type: ADME, organism-based; conditions: in vivo, time 0.08-24 hrs
# [26] = Plasma clearance in Sprague-Dawley rat at 1 mg/kg, iv measured after 0.08 to 24 hrs hrs by LC/MS/MS analysis; type: ADME, organism-based; conditions: time 0.08-24 hrs
# [27] = Metabolic stability in rat hepatocytes assessed as parent compound remaining after 120 mins by LC-MS/MS analysis; type: ADME, cell-based, Hepatocyte; conditions: read-out: Stabilty
# [28] = Metabolic stability in human hepatocytes assessed as clearance incubated up to 120 mins measured per million cells by LC-MS/MS analysis; type: ADME, cell-based, Hepatocyte; conditions: read-out: CLH
# RAW264.7 [29] = test: Cytotoxicity against LPS-induced mouse RAW 264.7 cells assessed as cell viability measured by MTT assay; type: cell-based
# [30] = Acute toxicity in rat assessed as liver necrosis at 200 to 500 mg/kg measured after 7 days by H and E staining based assay; type: organism-based; conditions: in vivo, 168 h, dose 200-500 mg/kg, time 7 day
# Sequence of Cytochrome P450 2D6 (P10635 whole entry): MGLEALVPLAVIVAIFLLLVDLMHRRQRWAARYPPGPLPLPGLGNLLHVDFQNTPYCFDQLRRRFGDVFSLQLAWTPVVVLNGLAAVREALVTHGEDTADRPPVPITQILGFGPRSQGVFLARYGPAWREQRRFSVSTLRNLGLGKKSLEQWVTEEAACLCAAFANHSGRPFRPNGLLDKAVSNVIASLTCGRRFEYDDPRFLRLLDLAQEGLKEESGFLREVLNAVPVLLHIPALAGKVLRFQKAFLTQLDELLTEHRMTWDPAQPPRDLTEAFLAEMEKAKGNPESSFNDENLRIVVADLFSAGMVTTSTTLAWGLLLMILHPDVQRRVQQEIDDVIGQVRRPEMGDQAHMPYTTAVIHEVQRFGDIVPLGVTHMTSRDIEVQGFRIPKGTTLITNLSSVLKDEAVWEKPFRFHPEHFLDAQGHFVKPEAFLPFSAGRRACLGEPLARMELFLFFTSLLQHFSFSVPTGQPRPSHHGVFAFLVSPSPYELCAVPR
# Sequence of Cytochrome P450 2C9 (P11712 whole entry): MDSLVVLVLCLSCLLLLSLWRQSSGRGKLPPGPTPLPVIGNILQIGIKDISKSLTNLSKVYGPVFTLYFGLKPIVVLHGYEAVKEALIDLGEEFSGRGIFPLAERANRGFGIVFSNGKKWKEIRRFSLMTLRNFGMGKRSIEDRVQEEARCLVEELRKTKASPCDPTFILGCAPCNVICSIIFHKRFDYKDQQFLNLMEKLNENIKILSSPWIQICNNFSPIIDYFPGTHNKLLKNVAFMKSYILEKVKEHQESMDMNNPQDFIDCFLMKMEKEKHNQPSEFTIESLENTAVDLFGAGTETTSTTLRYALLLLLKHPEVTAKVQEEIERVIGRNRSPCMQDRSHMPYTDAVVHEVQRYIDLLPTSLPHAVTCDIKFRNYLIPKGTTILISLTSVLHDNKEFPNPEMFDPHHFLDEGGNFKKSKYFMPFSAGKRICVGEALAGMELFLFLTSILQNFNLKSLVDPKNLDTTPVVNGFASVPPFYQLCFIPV
structure (smiles),measurement,setting,value
COc1cc(/C=C/c2nc(NCc3ccc(C)cc3)c3sccc3n2)cc(OC)c1OC,inhibition at 10 µM,RAW264.7 [1],98.3%
same,IC50,L02 [2],2930 µM
same,Activity,[3],Non-Toxic
same,Activity,RAW264.7 [4],Non-Toxic
same,Activity,[5],Non-Toxic
same,half-life,[6],4.91 h
same,Activity,[7],Non-Toxic
same,Activity,Rattus norvegicus [8],Dose-Dependent Effect
same,Cmax,[9],131 ng/mL
same,Activity,[10],Non-Toxic
same,IC50,Cytochrome P450 2C9,8.91 µM
same,inhibition,RAW264.7 [11],inactive
same,AUC,[12],1152 ng·h/mL
same,AUC(0-inf),[13],401 ng·h/mL
same,Activity,Rattus norvegicus [14],Active
same,half-life,[15],5.44 h
same,Activity,[16],Non-Toxic
same,Activity,[17],Non-Toxic
same,Activity,[18],Non-Toxic
same,half-life,[19],0.925 h
same,Activity,[20],Non-Toxic
same,IC50,RAW264.7 [21],1.86 µM
same,Vd,[22],11.3 L/kg
same,IC50,L02 [23],> 1000 µM
same,Activity,Rattus norvegicus [24],Dose-Dependent Effect
same,IC50,Cytochrome P450 2D6,> 50 µM
same,half-life,[25],6.21 h
same,clearance,[26],42.9 mL/min/kg
same,remaining at 2 h,[27],22.2%
same,hepatocyte CLint,[28],2.1 µL/min/1e6 cells
same,IC50,RAW264.7 [29],> 50 µM
same,Activity,[30],Toxic
